Measured values from patent publication US9333234B2, “Combination of somatostatin-analogs with 11beta-hydroxylase inhibitors” (Novartis AG, priority 2012, dated 2016).
Like-named read-outs stand apart in the source and are kept apart here. Values belong to the compound of their own block, whether it stands above or below them. Numbered stars: 1 amine (or outer) side, 2 acyl side, 3 side chain; on linkers, the order of the positions; unused ones are H or OH. Square brackets hold non-standard residues; d marks the D form. Side chains are listed from the residue outwards. Peptide text beside a SMILES is read from it. * marks the point of attachment. Ethylenediamine = C(CN[*:2])N[*:1]; Hyp = O=C(O)[C@@H]1C[C@@H](O)CN1; Phg = N[C@H](C(=O)O)c1ccccc1; CO = O=C([*:1])[*:2]; Bn = c1ccc(C*)cc1

Columns and labels:
[1] = tested on: patients with Cushing's disease
Experimental: Dose escalation was planned every 2 weeks to 5, 10, 20 and 50 mg bid until UFC normalized, in which case the dose was maintained until day 70, when treatment stopped. Dose reduction for tolerability was permitted. UFC was assessed on the penultimate day of each 2-week period. Patients were monitored until day 84. The primary endpoint was UFC≦ULN or a ≧50% decrease from baseline at day 70 using the mean of 3 UFC samples collected during the week before day 70.

Wistar Hannover rats = format: in vivo; details: for Serum corticosterone, Change from Control (%): Female rats; for Effects on serum corticosterone (PD marker), in words: compared to control
Description: Another group of rats (10/sex) received daily doses of Ultrapure water, by oral gavage, and the Acetate buffered solution pH 4.5 for injection USP, by subcutaneous injection, and served as controls.
Study activities included clinical examinations, involving twice daily exams for mortality and signs of ill health or reaction to treatment, daily pre-dose and 1-hour post dose cage-side observations, weekly detailed examination, body weights and food consumption, two ophthalmic examinations (pretreatment and week 13), clinical pathology (hematology, coagulation and clinical biochemistry, urinalysis) and immunology at the end of dosing (Adrenocorticotropic hormone, Corticosterone, Growth hormone, Insulin-like growth factor and urinalysis for Corticosterone). […] Post mortem evaluation included macroscopic observations, organ weight assessments (absolute and relative to body) and microscopic examinations.

[2] = Solubility and stability in water at 0.1% target concentration, 50° C.; format: physicochemical; details: for stability / behaviour in water: 2 days at 50° C.
[3] = Solubility profile, excess solids equilibrated in each solvent; format: physicochemical
Experimental: Excess solids were equilibrated in each solvent for over 24 hours at 25° C.±0.1. Concentration in supernatant was measured by gravimetry for organic solvents and by HPLC from aqueous solvents and propylene glycol.

[4] = tested on: Cushing's disease patients; details: Colao et al. N Engl J Med 2012; 366:32-42; cited from earlier work
[5] = Hygroscopicity, sorption/desorption isotherms (VTI 100 humidity microbalance); format: physicochemical; details: 25° C.
Experimental: Sorption/desorption isotherms were measured using the VTI 100 humidity microbalance (VTI Corporation, Hialeah, Fla., USA). Measurements were carried out at 25° C. Samples were dried under N2 flow at 25° C.

[6] = of the 9 patients who completed the active treatment phase
[7] = patients with Cushing's disease
[8] = Female rats (n = 10), dose 20/— (COMPOUND A 20 mg/kg/day alone)
[9] = Male rats (n = 10), dose 20/— (COMPOUND A 20 mg/kg/day alone)
[10] = Female rats (n = 10), dose —/0.3 (SOM230 0.3 mg/kg/day alone)
[11] = Male rats (n = 10), dose —/0.3 (SOM230 0.3 mg/kg/day alone)

SMILES: N#Cc1ccc([C@H]2CCc3cncn32)c(F)c1 [Compound A, (R)-4-(6,7-Dihydro-5H-pyrrolo[1,2-c]imidazol-5-yl)-3-fluoro-benzonitrile]
ACTH level doubled, share of patients ([1]; 10-week trial): half of the patients
effect on urinary free cortisol (UFC) ([1]; 10-week trial): successfully reduced urinary free cortisol (UFC) in all patients
adverse event fatigue (patients) ([1]; 12 patients enrolled): 7/12
adverse event headache (patients) ([1]; 12 patients enrolled): 3/12
adverse event nausea (patients) ([1]; 12 patients enrolled): 4/12
patients with ACTH levels >2× baseline ([1]; 12 patients enrolled): Five
patients with study drug-related hypokalemia (K+<3.5 mmol/L) ([1]; 12 patients enrolled): Four
mean SBP decrease from baseline ([1]; day 70): 13.1 mmHg
patients with UFC >ULN after treatment discontinuation ([1]; measurements at day 84): 6 patients
patients achieving primary endpoint (UFC≦ULN or ≧50% decrease from baseline at day 70) [1, 6]: 9 patients
patients with normal UFC levels on day 70 [1, 6]: 8 patients
patients with normal UFC levels on at least one assessment during the study ([1]; oral, 2-50 mg bid dose escalation): 11 of 11
efficacy conclusion [1, 7]: demonstrated efficacy
tolerability / safety profile [1, 7]: satisfactory safety profile
tolerability / safety profile ([1]; patients with Cushing's disease, listed as COMPOUND A): generally well tolerated
Absolute adrenal weights (Wistar Hannover rats; [8]): 0.07002 g
Mean serum corticosterone level (Wistar Hannover rats; [8]): 166.76
Serum corticosterone, Change from Control (%) (Wistar Hannover rats; dose 20/— (COMPOUND A 20 mg/kg/day alone)): −36%
Absolute adrenal weights (Wistar Hannover rats; [9]): 0.04969 g
Mean serum corticosterone level (Wistar Hannover rats; [9]): 221.83
adrenalcortical hypertrophy (Wistar Hannover rats; female rats): produced adrenalcortical hypertrophy
Effects on serum corticosterone (PD marker), in words (Wistar Hannover rats; rats): decreases in serum corticosterone in females only
Effects on adrenal gland organ weights, in words (Wistar Hannover rats; rats, more pronounced in females): increased adrenal gland organ weights
solubility in water at the 0.1% target concentration [2]: largely insoluble
stability / behaviour in water [2]: converted from a free flowing solid into an oily material
Solubility ([3]; Ethanol, over 24 hours at 25° C.): >50 mg/mL
Solubility ([3]; Ethyl Acetate, over 24 hours at 25° C.): >50 mg/mL
Solubility ([3]; organic solvent or mixture, thermodynamic from solid, Acetone, over 24 hours at 25° C., read-out: Solubility): > 50 mg/mL
Solubility ([3]; simulated gastric fluid, thermodynamic from solid, pH 1, over 24 hours at 25° C., read-out: Solubility): > 50 mg/mL

Absolute adrenal weights (Wistar Hannover rats; [10]): 0.04585 g
Relative adrenal weight (% of body weight) (Wistar Hannover rats; [10]): 0.02432 % of body weight
Absolute adrenal weights (Wistar Hannover rats; [11]): 0.03615 g
Relative adrenal weight (% of body weight) (Wistar Hannover rats; [11]): 0.01326 % of body weight
SMILES: NCCCC[C@@H]1NC(=O)[C@@H](Cc2c[nH]c3ccccc23)NC(=O)[C@H](c2ccccc2)NC(=O)[C@@H]2C[C@@H](OC(=O)NCCN)CN2C(=O)[C@H](Cc2ccccc2)NC(=O)[C@H](Cc2ccc(OCc3ccccc3)cc2)NC1=O [SOM230, cyclo[{4-(NH2—C2H4—NH—CO—O-)Pro}-Phg-DTrp-Lys-Tyr(4-Bzl)-Phe], reference compound] (cyclo([Hyp]([CO-Ethylenediamine])[Phg][dW]KY(Bn)F))
Mean serum corticosterone level (Wistar Hannover rats; [10]): 190.56
Serum corticosterone, Change from Control (%) (Wistar Hannover rats; dose —/0.3 (SOM230 0.3 mg/kg/day alone)): −27%
Mean serum corticosterone level (Wistar Hannover rats; [11]): 233.68
Effects on serum corticosterone (PD marker), in words (Wistar Hannover rats; rats): decreases in serum corticosterone in females only
cortisol levels in Cushing's disease patients [4]: significant decrease of cortisol levels

SMILES: N#Cc1ccc([C@H]2CCc3cncn32)c(F)c1.O=P(O)(O)O [Phosphate salt, Phosphate Salt of 4-(R)-6,7-dihydro-5H-pyrrolo[1,2-c]imidazol-5-yl-3-fluoro-benzonitrile (Form A)]
solubility in water at the 0.1% target concentration [2]: soluble
stability / behaviour in water [2]: stable
Solubility ([3]; Water, over 24 hours at 25° C.): >50 mg/mL
Solubility ([3]; pH 1, over 24 hours at 25° C.): >50 mg/mL
Solubility ([3]; pH 6.8, over 24 hours at 25° C.): >50 mg/mL
hygroscopicity, water uptake ([5]; 5% RH): 0%
hygroscopicity, water uptake ([5]; 75% relative humidity): 0.9%
